Assay results published in ChEMBL document CHEMBL3217753, “Discovery of selective 2,4-diaminopyrimidine-based photoaffinity probes for glyoxalase I” (Medchemcomm, 2014).
Calls of active or inactive are those of the source. No cut-off for these calls is given here.

Experiments:
HeLa [1] = assay: Ratio of GI50 for human HeLa cells in presence of 5 mM glucose to GI50 for human HeLa cells in presence of 25 mM glucose; assay type: functional
A549 [2] = assay: Growth inhibition of human A549 cells after 48 hrs by CellTiter-Glo assay in presence of 25 mM glucose; assay type: functional; conditions: A549, 48 h
HeLa [3] = assay: Growth inhibition of human HeLa cells after 48 hrs by CellTiter-Glo assay in presence of 25 mM glucose; assay type: functional
A549 [4] = assay: Growth inhibition of human A549 cells after 48 hrs by CellTiter-Glo assay in presence of 5 mM glucose; assay type: functional; conditions: A549, 48 h
Lactoylglutathione lyase [5] = biological target: T1, Lactoylglutathione lyase (Homo sapiens, UniProt Q04760); assay: Inhibition of recombinant GLO-1 (unknown origin) assessed as S-D-lactoylglutathione formation preincubated for 1 hr followed by methylglyoxal and GSH addition measured after 9 mins by spectrophotometric analysis
Target sequence in this assay (Q04760 whole entry): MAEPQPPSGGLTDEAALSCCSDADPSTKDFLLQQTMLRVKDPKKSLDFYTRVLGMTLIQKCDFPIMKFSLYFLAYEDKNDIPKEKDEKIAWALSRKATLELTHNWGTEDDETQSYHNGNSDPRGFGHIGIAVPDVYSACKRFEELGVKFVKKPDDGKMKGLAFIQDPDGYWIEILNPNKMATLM

NCI-H522 [6] = assay: Growth inhibition of human NCI-H522 cells after 48 hrs by CellTiter-Glo assay in presence of 25 mM glucose; assay type: functional; conditions: NCI-H522, 48 h
HeLa [7] = assay: Growth inhibition of human HeLa cells after 48 hrs by CellTiter-Glo assay in presence of 5 mM glucose; assay type: functional
NCI-H522 [8] = assay: Growth inhibition of human NCI-H522 cells after 48 hrs by CellTiter-Glo assay in presence of 5 mM glucose; assay type: functional; conditions: NCI-H522, 48 h
Lactoylglutathione lyase [9] = biological target: T1, Lactoylglutathione lyase; assay: Competitive binding affinity to dimeric form of GLO-1 in HEK293T cells at 20 uM incubated for 6 hrs followed by UV-irradiation for 1 hr by fluorescence assay in presence of N-(4-(4-(5-fluoro-4-(2-(methylsulfonamido)phenylamino)pyrimidin-2-ylamino)benzoyl)phenyl)hex-5-ynamide; assay type: cell-based; conditions: HEK-293T
Target sequence in this assay (Q04760 2-184 limits assumed): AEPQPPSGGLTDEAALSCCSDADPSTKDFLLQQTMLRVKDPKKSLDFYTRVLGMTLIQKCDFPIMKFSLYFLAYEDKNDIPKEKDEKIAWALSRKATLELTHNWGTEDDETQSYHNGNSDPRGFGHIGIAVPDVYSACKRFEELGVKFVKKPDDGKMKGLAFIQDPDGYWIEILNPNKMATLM

Lactoylglutathione lyase [10] = biological target: T1, Lactoylglutathione lyase; assay: Competitive binding affinity to monomeric form of GLO-1 in HEK293T cells at 20 uM incubated for 6 hrs followed by UV-irradiation for 1 hr by fluorescence assay in presence of N-(4-(4-(5-fluoro-4-(2-(methylsulfonamido)phenylamino)pyrimidin-2-ylamino)benzoyl)phenyl)hex-5-ynamide; assay type: cell-based; conditions: HEK-293T
Target sequence in this assay (Q04760 2-184 limits assumed): as above

Lactoylglutathione lyase [11] = biological target: T1, Lactoylglutathione lyase; assay: Inhibition of GLO-1 in human HeLa cells under high glucose condition assessed as increase in methylglyoxal level at 5 uM after 24 hrs by spectrophotometric analysis; assay type: cell-based
Target sequence in this assay (Q04760 2-184 limits assumed): as above

Lactoylglutathione lyase [12] = biological target: T1, Lactoylglutathione lyase; assay: Competitive binding affinity to monomeric form of GLO-1 in HEK293T cell lysate at 20 uM after overnight incubation followed by UV-irradiation for 1 hr by fluorescence assay in presence of N-(4-(4-(5-fluoro-4-(2-(methylsulfonamido)phenylamino)pyrimidin-2-ylamino)benzoyl)phenyl)hex-5-ynamide; assay type: cell-based; conditions: HEK-293T
Target sequence in this assay (Q04760 2-184 limits assumed): as above

Lactoylglutathione lyase [13] = biological target: T1, Lactoylglutathione lyase; assay: Competitive binding affinity to dimeric form of GLO-1 in HEK293T cell lysate at 20 uM after overnight incubation followed by UV-irradiation for 1 hr by fluorescence assay in presence of N-(4-(4-(5-fluoro-4-(2-(methylsulfonamido)phenylamino)pyrimidin-2-ylamino)benzoyl)phenyl)hex-5-ynamide; assay type: cell-based; conditions: HEK-293T
Target sequence in this assay (Q04760 2-184 limits assumed): as above

HeLa [14] = assay: Induction of apoptosis in human HeLa cells under high glucose condition assessed as caspase-3 degradation at 1 to 50 uM after 24 hrs by Western blotting analysis; assay type: functional, cell-based
HeLa [15] = assay: Induction of apoptosis in human HeLa cells under high glucose condition assessed as nuclear fragmentation at 5 uM after 24 hrs by DAPI staining-based fluorescence microscopic analysis; assay type: functional, cell-based
Lactoylglutathione lyase [16] = biological target: T1, Lactoylglutathione lyase; assay: Competitive binding affinity to GLO-1 in human HeLa cells at 100 uM incubated for 6 hrs followed by UV-irradiation for 1 hr by fluorescence microscopic analysis in presence of N-(4-(4-(5-fluoro-4-(2-(methylsulfonamido)phenylamino)pyrimidin-2-ylamino)benzoyl)phenyl)hex-5-ynamide; assay type: cell-based
Target sequence in this assay (Q04760 2-184 limits assumed): as above

Lactoylglutathione lyase [17] = biological target: T1, Lactoylglutathione lyase; assay: (§1) Competitive binding affinity to GLO-1 in HEK293T cell lysate at 50 uM after overnight incubation followed by UV-irradiation for 1 hr by pull-down assay in presence of N-(4-(4-(5-fluoro-4-(2-(methylsulfonamido)phenylamino)pyrimidin-2-ylamino)benzoyl)phenyl)-5-((3aS,4S,6aR)-2-oxohexahydro-1H-thieno[3,4-d]imidazol-4-yl)pentanamide; assay type: cell-based; conditions: HEK-293T
Lactoylglutathione lyase [18] = biological target: T1, Lactoylglutathione lyase; assay: Binding affinity to GLO-1 in live HEK293T cells by pull-down assay; assay type: cell-based; conditions: HEK-293T
Lactoylglutathione lyase [19] = biological target: T1, Lactoylglutathione lyase; assay: Competitive binding affinity to human recombinant GLO-1 at 50 uM in presence of N-(4-(4-(5-fluoro-4-(2-(methylsulfonamido)phenylamino)pyrimidin-2-ylamino)benzoyl)phenyl)-5-((3aS,4S,6aR)-2-oxohexahydro-1H-thieno[3,4-d]imidazol-4-yl)pentanamide
Lactoylglutathione lyase [20] = biological target: T1, Lactoylglutathione lyase; assay: as §1, with “Western blotting analysis” for “pull-down assay”; assay type: cell-based; conditions: HEK-293T

Row | GI50 (A549 [2]) | GI50 (HeLa [3]) | GI50 (A549 [4]) | IC50 (Lactoylglutathione lyase [5]) | GI50 (NCI-H522 [6]) | GI50 (HeLa [7]) | GI50 (NCI-H522 [8]) | Activity (Lactoylglutathione lyase [9]) | Activity (Lactoylglutathione lyase [10]) | inhibition (Lactoylglutathione lyase [11]) | Activity (Lactoylglutathione lyase [12]) | Activity (Lactoylglutathione lyase [13]) | Activity (Lactoylglutathione lyase [16]) | Activity (Lactoylglutathione lyase [17]) | Activity (Lactoylglutathione lyase [18]) | Activity (Lactoylglutathione lyase [19]) | Activity (Lactoylglutathione lyase [20]) | Structure (SMILES) | Ratio IC50 (HeLa [1]) | Activity (HeLa [14]) | Activity (HeLa [15])
1 | > 50 µM | 37 µM | > 50 µM | 0.0513 µM | 16.5 µM | 61.9 µM | 40.2 µM |  |  |  |  |  |  |  |  |  |  | CS(=O)(=O)Nc1ccccc1Nc1nc(Nc2ccc(C(=O)OCc3ccccc3)cc2)ncc1F | 2.6 |  | 
2 |  |  |  |  |  |  |  |  |  |  |  |  |  | Active | inactive | Active | Active | CS(=O)(=O)Nc1ccccc1Nc1nc(Nc2ccc(C(=O)c3ccc(NC(=O)CCCC[C@@H]4SC[C@@H]5NC(=O)N[C@@H]54)cc3)cc2)ncc1F |  |  | 

Continued, molecule first:

Row | Structure (SMILES) | GI50 (A549 [2]) | GI50 (HeLa [3]) | GI50 (A549 [4]) | IC50 (Lactoylglutathione lyase [5]) | GI50 (NCI-H522 [6]) | GI50 (HeLa [7]) | GI50 (NCI-H522 [8]) | Activity (Lactoylglutathione lyase [9]) | Activity (Lactoylglutathione lyase [10]) | inhibition (Lactoylglutathione lyase [11]) | Activity (Lactoylglutathione lyase [12]) | Activity (Lactoylglutathione lyase [13]) | Activity (Lactoylglutathione lyase [16]) | Activity (Lactoylglutathione lyase [17]) | Activity (Lactoylglutathione lyase [18]) | Activity (Lactoylglutathione lyase [19]) | Activity (Lactoylglutathione lyase [20]) | Ratio IC50 (HeLa [1]) | Activity (HeLa [14]) | Activity (HeLa [15])
3 | CS(=O)(=O)Nc1ccccc1Nc1nc(Nc2ccc(Oc3ccccc3)cc2)ncc1F | 26.9 µM | 7.3 µM | 37.4 µM | 0.0458 µM | 7.3 µM | 14 µM | 8.3 µM |  |  |  |  |  |  |  |  |  |  | 2.6 |  | 
4 | CS(=O)(=O)Nc1ccccc1Nc1nc(Nc2ccc(Cl)cc2)ncc1F | > 50 µM | 23.2 µM | > 50 µM | 0.0539 µM | 12.2 µM | 61 µM | 25 µM |  |  |  |  |  |  |  |  |  |  | 2.6 |  | 
5 | C#CCCCC(=O)Nc1ccc(C(=O)c2ccc(Nc3ncc(F)c(Nc4ccccc4NS(C)(=O)=O)n3)cc2)cc1 | 13.3 µM | 4.6 µM | 15.5 µM | 0.0264 µM | 2.9 µM | 5.7 µM | 2.7 µM | Active | Active | Active | Active | Active | Active |  |  |  |  |  | Active | Active
